One may read the solubility (thermodynamic) as solubility found after equilibrating the solid with the medium.

≈ marks a conversion by molar mass, not a printed value.

A short description of data set [1]: Solubility in 0.3 M acetate buffer at pH 5. It is filed as physicochemical.
Data set [2] in a line: Solubility in 0.3 M acetate buffer at pH 5 relative to naltrexone. In kind it is physicochemical.

`COCCOCCOCCNC(=O)Oc1ccc2c3c1O[C@H]1C(=O)CC[C@@]4(O)[C@@H](C2)N(CC2CC2)CC[C@]314` showed a thermodynamic solubility in data set [1] of 796 mM (≈ 422 mg/mL). Moreover, the Ratio in data set [2] is 2.35.

On to `O=C(NCCOCCOCCO)Oc1ccc2c3c1O[C@H]1C(=O)CC[C@@]4(O)[C@@H](C2)N(CC2CC2)CC[C@]314`, for which, in data set [1], the thermodynamic solubility came out at 1040 mM (≈ 535 mg/mL). In addition, in data set [2], the Ratio turned out to be 3.06.

In turn, `O=C(CCOCCOCCO)Oc1ccc2c3c1O[C@H]1C(=O)CC[C@@]4(O)[C@@H](C2)N(CC2CC2)CC[C@]314` gave a thermodynamic solubility in data set [1] of 629 mM (≈ 315 mg/mL). Moreover, the Ratio in data set [2] was 1.86.

For `COCCOCCOCCC(=O)Oc1ccc2c3c1O[C@H]1C(=O)CC[C@@]4(O)[C@@H](C2)N(CC2CC2)CC[C@]314`, in data set [1], the thermodynamic solubility was found to be 952 mM (≈ 491 mg/mL). In addition, in data set [2], the Ratio came to 2.81.

In data set [1], `O=C1CC[C@@]2(O)[C@H]3Cc4ccc(O)c5c4[C@@]2(CCN3CC2CC2)[C@H]1O5` [NALTREXONE] gave a thermodynamic solubility of 338 mM (≈ 115 mg/mL).

The values above are taken from ChEMBL document CHEMBL1155489, “Novel 3-O-pegylated carboxylate and 3-O-pegylated carbamate prodrugs of naltrexone for microneedle-enhanced transdermal delivery” (Bioorg Med Chem Lett, 2010).
